Assays:
[1] = Compound was tested for the toxic effect in mice after intraperitoneal injection; format: ADME, organism-based; conditions: mouse, in vivo, ip
[2] = In vitro inhibition of 3-deoxy-D-manno-2-octulosonate cytidylyltransferase (CMP-KDO) synthetase a key enzyme in the biosynthesis of the lipopolysaccharide (LPS) of Gram-negative bacteria
[3] = In vitro inhibition of (3-deoxy-D-manno-2-octulosonate cytidylyltransferase) CMP-KDO synthetase a key enzyme in the biosynthesis of the lipopolysaccharide (LPS) of Gram-negative bacteria; design: species or system Escherichia coli

SMILES | LD50 [1] [mg/kg] | further results
CSSc1cccc2cccc(COC(C)=O)c12 | > 1000 | –
c1cc2c3c(cccc3c1)SC2 | ~640 | –
NC[C@@H](O)[C@H]1O[C@H](C(=O)O)C[C@@H](O)[C@H]1O | – | Ki [2]: 4 µM
O=C(O)[C@@H]1C[C@@H](O)[C@@H](O)[C@@H]([C@H](O)CO)O1 | – | Ki [3]: 12 µM

Source: ChEMBL document CHEMBL1124615, “A novel prodrug of an impermeant inhibitor of 3-deoxy-D-manno-2-octulosonate cytidylyltransferase has antibacterial activity” (J Med Chem, 1989)
